The text below walks through data of US7914831B2, “Synergistic anti-inflammatory pharmaceutical compositions and related methods using curcuminoids or methylxanthines” (priority 2004, dated 2011).

Structures are written as SMILES. In brackets after ≈: the same amount, converted by molar mass.

The subject of the assay is PGE2 production. Type of assay: cell-based, murine. The conditions noted are these: Mus musculus, RAW264.7; RAW 264.7, test material 60 min prior to 1.0 μg/mL LPS, PGE2 18 h post stimulation; read-out: IC50 (median inhibitory concentration for PGE2).

As for `Cn1c(=O)c2c(ncn2C)n(C)c1=O` [Caffeine, caffeine], the IC50 is 25 µg/mL (≈ 129 µM).
